Experimental data taken from PubChem BioAssay AID330 (DTP/NCI, 2004).
Where “and” joins values, the source holds several entries; their conditions need not be identical. Equal entries are not always repeated. Inconclusive results and toxic doses are left out. The calls were made as follows: active = survival T/C of 150% or more; inactive = T/C below 125% in these data.

Tested on: P388 leukemia ip, CD2F1 mice, survival T/C
Assay: NCI In Vivo Anticancer Drug Screen. Data for tumor model P388 Leukemia (intraperitoneal) in CD2F1 (CDF1) mice
Settings: endpoint: median survival time, higher = longer survival
In short: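 Mice carrying the transplanted tumor received test compound or vehicle. Survival was recorded in each group, and the value is the treated-group measurement divided by that of the vehicle-treated control group.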

[1] = dose: 50.0 mg/kg/injection, schedule: Q01DX005 (ip), vehicle: saline with Tween-80
[2] = dose: 100.0 mg/kg/injection, schedule: Q01DX005 (ip), vehicle: saline with Tween-80
[3] = dose: 60.0 mg/kg/injection, schedule: Q01DX005 (ip), vehicle: Klucel (hydroxypropylcellulose) (HPC)
[4] = dose: 120.0 mg/kg/injection, schedule: Q01DX005 (ip), vehicle: Klucel (hydroxypropylcellulose) (HPC)
[5] = dose: 50.0 mg/kg/injection, schedule: Q01DX005 (ip), vehicle: Klucel (hydroxypropylcellulose) (HPC)
[6] = dose: 100.0 mg/kg/injection, schedule: Q01DX005 (ip), vehicle: Klucel (hydroxypropylcellulose) (HPC)
[7] = dose: 50.0 mg/kg/injection, schedule: Q01DX009 (ip), vehicle: Klucel (hydroxypropylcellulose) (HPC)
[8] = dose: 100.0 mg/kg/injection, schedule: Q01DX009 (ip), vehicle: Klucel (hydroxypropylcellulose) (HPC)
[9] = dose: 200.0 mg/kg/injection, schedule: Q01DX009 (ip), vehicle: Klucel (hydroxypropylcellulose) (HPC)
[10] = dose: 200.0 mg/kg/injection, schedule: Q01DX005 (ip), vehicle: Klucel (hydroxypropylcellulose) (HPC)
[11] = dose: 50.0 mg/kg/injection, schedule: Q01DX009 (ip), vehicle: saline with Tween-80
[12] = dose: 100.0 mg/kg/injection, schedule: Q01DX009 (ip), vehicle: saline with Tween-80
[13] = dose: 200.0 mg/kg/injection, schedule: Q01DX009 (ip), vehicle: saline with Tween-80
[14] = dose: 60.0 mg/kg/injection, schedule: Q01DX005 (ip), vehicle: saline with Tween-80
[15] = dose: 120.0 mg/kg/injection, schedule: Q01DX005 (ip), vehicle: saline with Tween-80
[16] = dose: 240.0 mg/kg/injection, schedule: Q01DX005 (ip), vehicle: saline with Tween-80
[17] = dose: 25.0 mg/kg/injection, schedule: Q01DX005 (ip), vehicle: Klucel (hydroxypropylcellulose) (HPC)

Measured: T/C

COc1ccc(-c2ccc(Cc3ccc(-c4ccc(OC)cc4)o3)o2)cc1
inactive: [1] 94 % of control | [2] 91 % of control | dose: 200.0 mg/kg/injection, schedule: Q01DX005 (ip), vehicle: saline with Tween-80 91 % of control

Cc1c(Br)c(C)[n+]([O-])n1O
inactive: [3] 99 % of control | [4] 95 % of control

CC(NNC(=S)N1CCC(c2ccccc2)CC1)c1ccc2ccccc2n1 (stereo not drawn)
inactive: [5] 97 % of control | [6] 105 % of control

CC1(Cc2c[nH]c(=O)[nH]c2=O)C(=O)NC(=O)NC1=O
inactive: [7] 105 % of control | [8] 100 % of control | [9] 98 % of control

COc1c2c(cc3c1-c1c(cc4c(c1OC)OCO4)CC(C)C(C)C3)OCO2 (stereo not drawn)
inactive: dose: 13.75 mg/kg/injection, schedule: Q01DX005 (ip), vehicle: Klucel (hydroxypropylcellulose) (HPC) 95 % of control | dose: 27.5 mg/kg/injection, schedule: Q01DX005 (ip), vehicle: Klucel (hydroxypropylcellulose) (HPC) 98 % of control | dose: 55.0 mg/kg/injection, schedule: Q01DX005 (ip), vehicle: Klucel (hydroxypropylcellulose) (HPC) 98 % of control | dose: 110.0 mg/kg/injection, schedule: Q01DX005 (ip), vehicle: Klucel (hydroxypropylcellulose) (HPC) 90 % of control

COc1ccccc1C1OC2=C(Nc3ccccc3N2)C1=O (stereo not drawn)
inactive: dose: 30.0 mg/kg/injection, schedule: Q01DX005 (ip), vehicle: Klucel (hydroxypropylcellulose) (HPC) 101 % of control | [3] 97 % of control and 98 % of control | [4] 91 % of control | dose: 240.0 mg/kg/injection, schedule: Q01DX005 (ip), vehicle: Klucel (hydroxypropylcellulose) (HPC) 92 % of control

OCCCCc1nccc2c1[nH]c1ccccc12
inactive: dose: 12.5 mg/kg/injection, schedule: Q01DX009 (ip), vehicle: Klucel (hydroxypropylcellulose) (HPC) 106 % of control | dose: 25.0 mg/kg/injection, schedule: Q01DX009 (ip), vehicle: Klucel (hydroxypropylcellulose) (HPC) 106 % of control | [7] 104 % of control | [8] 95 % of control

Cc1nc2cc3ccccc3cc2nc1C
inactive: [5] 100 % of control | [6] 99 % of control | [10] 100 % of control

Cc1cc(N(CCO)CCO)c2ccc3ccccc3c2n1
inactive: [11] 101 % of control | [12] 108 % of control | [13] 97 % of control

CN(C)CC#N
inactive: dose: 5.0 mg/kg/injection, schedule: Q01DX009 (ip), vehicle: saline 104 % of control | dose: 10.0 mg/kg/injection, schedule: Q01DX009 (ip), vehicle: saline 109 % of control | dose: 20.0 mg/kg/injection, schedule: Q01DX009 (ip), vehicle: saline 109 % of control

CC(=O)Nc1ccc(/C=N/NC(=O)CC2CCCCC2)cc1
inactive: [14] 96 % of control | [15] 100 % of control | [16] 91 % of control

CNC(=O)N(Cl)c1ccc(Cl)cc1
inactive: dose: 50.0 mg/kg/injection, schedule: Q01DX009 (ip), vehicle: saline 98 % of control | dose: 100.0 mg/kg/injection, schedule: Q01DX009 (ip), vehicle: saline 96 % of control | dose: 200.0 mg/kg/injection, schedule: Q01DX009 (ip), vehicle: saline 97 % of control

N#C/C(=C/c1cccs1)c1cccs1
inactive: [14] 100 % of control | [15] 106 % of control | [16] 109 % of control

O=C1C(=C2C=CN(CCCN3CCCCC3)C=C2)C(=O)c2ccccc21
inactive: [7] 91 % of control | [8] 102 % of control | [9] 102 % of control

Nc1nc2[nH]c(=O)cnc2c(=O)[nH]1
inactive: dose: 12.5 mg/kg/injection, schedule: Q01DX009 (ip), vehicle: saline with Tween-80 107 % of control | dose: 25.0 mg/kg/injection, schedule: Q01DX009 (ip), vehicle: saline with Tween-80 107 % of control | [11] 108 % of control | dose: 50.0 mg/kg/injection, schedule: Q01DX009 (ip), vehicle: suspension in saline 106 % of control | dose: 100.0 mg/kg/injection, schedule: Q01DX009 (ip), vehicle: suspension in saline 91 % of control | dose: 200.0 mg/kg/injection, schedule: Q01DX009 (ip), vehicle: suspension in saline 107 % of control | dose: 300.0 mg/kg/injection, schedule: Q01DX009 (ip), vehicle: saline 91 % of control

COc1cc(C)c(/C=C/C(C)=C/c2cc(C)cc(=O)o2)c(C)c1C
inactive: [17] 86 % of control | [5] 88 % of control | [6] 86 % of control and 92 % of control

O=C1c2ccccc2C(O)N1CCc1c[nH]c2ccccc12 (stereo not drawn)
inactive: [5] 93 % of control | [6] 95 % of control | [10] 91 % of control

CCOCC1COc2c(cc3[nH]cc(C(=O)O)c(=O)c3c2Cl)O1 (stereo not drawn)
inactive: [11] 95 % of control | [12] 93 % of control | [13] 95 % of control

C1CC[N-]CC1.CC(=O)Nc1[c-]cccc1.CC(=O)O.[Pd+2]
inactive: dose: 25.0 mg/kg/injection, schedule: Q01DX005 (ip), vehicle: saline with Tween-80 112 % of control and 95 % of control | [1] 107 % of control and 114 % of control and 119 % of control | [2] 111 % of control

Cc1ccc(C(=O)CC(=O)Nc2cc([N+](=O)[O-])ccc2OCCOc2ccc(C(C)(C)CC(C)(C)C)cc2)cc1
inactive: dose: 18.75 mg/kg/injection, schedule: Q04DX003 (ip), vehicle: saline sonified 109 % of control | dose: 37.5 mg/kg/injection, schedule: Q04DX003 (ip), vehicle: saline sonified 90 % of control | dose: 75.0 mg/kg/injection, schedule: Q04DX003 (ip), vehicle: saline sonified 109 % of control

C=C(C)[C@H]1Cc2c(ccc3c2O[C@@H]2COc4cc(OC)c(OC)cc4[C@@H]2C3=O)O1
inactive: dose: 1.5 mg/kg/injection, schedule: Q01DX009 (ip), vehicle: saline with Tween-80 110 % of control | dose: 1.5 mg/kg/injection, schedule: Q04DX003 (ip), vehicle: saline with Tween-80 100 % of control | dose: 3.0 mg/kg/injection, schedule: Q01DX009 (ip), vehicle: saline with Tween-80 115 % of control | dose: 3.0 mg/kg/injection, schedule: Q04DX003 (ip), vehicle: saline with Tween-80 100 % of control | dose: 6.0 mg/kg/injection, schedule: Q01DX009 (ip), vehicle: saline with Tween-80 120 % of control | dose: 6.0 mg/kg/injection, schedule: Q04DX003 (ip), vehicle: saline with Tween-80 104 % of control | dose: 12.5 mg/kg/injection, schedule: Q01DX001 (ip), vehicle: saline with Tween-80 110 % of control | dose: 25.0 mg/kg/injection, schedule: Q01DX001 (ip), vehicle: saline with Tween-80 114 % of control | dose: 50.0 mg/kg/injection, schedule: Q01DX001 (ip), vehicle: saline with Tween-80 112 % of control

COc1cc(OC)cc(N2C(N)=NC(N)=NC2(C)C)c1
inactive: dose: 12.5 mg/kg/injection, schedule: Q01DX005 (ip), vehicle: Klucel (hydroxypropylcellulose) (HPC) 104 % of control | [17] 105 % of control | [5] 102 % of control and 107 % of control

CN1CCC(CNC(=O)CCCCCCCCC(=O)NCC2(c3ccccc3)CCN(C)CC2)(c2ccccc2)CC1
inactive: dose: 0.39 mg/kg/injection, schedule: Q01DX009 (ip), vehicle: saline 100 % of control | dose: 0.78 mg/kg/injection, schedule: Q01DX009 (ip), vehicle: saline 96 % of control | dose: 1.56 mg/kg/injection, schedule: Q01DX009 (ip), vehicle: saline 105 % of control | dose: 3.12 mg/kg/injection, schedule: Q01DX009 (ip), vehicle: saline 111 % of control

CCOc1c(Br)cc(/C=C(\C)[N+](=O)[O-])cc1OC
inactive: [14] 112 % of control | [15] 106 % of control

COc1cc(OC)c(NC(=S)Nc2sc3c(c2C#N)CCCC3)cc1Cl
inactive: dose: 50.0 mg/kg/injection, schedule: Q01DX009 (ip), vehicle: gum acacia 110 % of control | dose: 100.0 mg/kg/injection, schedule: Q01DX009 (ip), vehicle: gum acacia 103 % of control | dose: 200.0 mg/kg/injection, schedule: Q01DX009 (ip), vehicle: gum acacia 102 % of control

Nc1cc(Nc2cccc(Cl)c2)nc(N)n1
inactive: dose: 50.0 mg/kg/injection, schedule: Q04DX003 (ip), vehicle: saline with Tween-80 87 % of control | dose: 100.0 mg/kg/injection, schedule: Q04DX003 (ip), vehicle: saline with Tween-80 91 % of control
